Assay results as given in the supplement of paper PMC10307832.

Key:
Experiment in all cases: relative viability (nuclei count vs DMSO), 5 days (fraction); higher = more cells survive
XMD13-2 + Tozasertib = compound: C1CC1C(=O)NC2=NNC3=C2C=CC(=C3)C4=CC(=CC=C4)C(=O)NC5CC5 [XMD13-2] + Cc1cc(Nc2cc(N3CCN(C)CC3)nc(Sc3ccc(NC(=O)C4CC4)cc3)n2)n[nH]1 [Tozasertib] (partner 0.1 µM)
Method in brief: (§1)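 Lung cancer cell lines in 1536-well plates were dosed by pin tool the day after seeding, either with one drug alone or with a fixed anchor-drug dose plus five library-drug doses (not always all listed) in √10 steps. After 5 days, cells were fixed and their nuclei stained in one step (final 0.05% Triton X-100, 1% formaldehyde, 1 ug/ml Hoechst), then counted on 4× images. Relative viability is the nuclei count in treated wells divided by that in vehicle wells. Values are medians of duplicate plates.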

Dasatinib + Tozasertib = compound: Cc1nc(Nc2ncc(C(=O)Nc3c(C)cccc3Cl)s2)cc(N2CCN(CCO)CC2)n1 [Dasatinib] + Cc1cc(Nc2cc(N3CCN(C)CC3)nc(Sc3ccc(NC(=O)C4CC4)cc3)n2)n[nH]1 [Tozasertib] (partner 0.1 µM)
Method in brief: as §1

Dasatinib + Alpelisib = compound: Cc1nc(Nc2ncc(C(=O)Nc3c(C)cccc3Cl)s2)cc(N2CCN(CCO)CC2)n1 [Dasatinib] + Cc1nc(NC(=O)N2CCC[C@H]2C(N)=O)sc1-c1ccnc(C(C)(C)C(F)(F)F)c1 [Alpelisib] (partner 2 µM)
Method in brief: as §1

XMD13-2 + OSI-027 = compound: C1CC1C(=O)NC2=NNC3=C2C=CC(=C3)C4=CC(=CC=C4)C(=O)NC5CC5 [XMD13-2] + COc1cccc2cc(-c3nc([C@H]4CC[C@H](C(=O)O)CC4)n4ncnc(N)c34)[nH]c12 [OSI-027] (partner 0.5 µM)
Method in brief: as §1

| Cell Line | relative viability (XMD13-2 + Tozasertib; first compound 0.05 µM) | relative viability (XMD13-2 + Tozasertib; first compound 0.1581 µM) | relative viability (XMD13-2 + Tozasertib; first compound 0.5 µM) | relative viability (XMD13-2 + Tozasertib; first compound 1.581 µM) | relative viability (XMD13-2 + Tozasertib; first compound 5 µM) | relative viability (Dasatinib + Tozasertib; first compound 0.005 µM) | relative viability (Dasatinib + Tozasertib; first compound 0.01581 µM) | relative viability (Dasatinib + Tozasertib; first compound 0.05 µM) | relative viability (Dasatinib + Tozasertib; first compound 0.1581 µM) | relative viability (Dasatinib + Tozasertib; first compound 0.5 µM) | relative viability (Dasatinib + Alpelisib; first compound 0.005 µM) | relative viability (Dasatinib + Alpelisib; first compound 0.01581 µM) | relative viability (Dasatinib + Alpelisib; first compound 0.05 µM) | relative viability (Dasatinib + Alpelisib; first compound 0.1581 µM) | relative viability (Dasatinib + Alpelisib; first compound 0.5 µM) | relative viability (XMD13-2 + OSI-027; first compound 0.05 µM) | relative viability (XMD13-2 + OSI-027; first compound 0.1581 µM) | relative viability (XMD13-2 + OSI-027; first compound 0.5 µM) | relative viability (XMD13-2 + OSI-027; first compound 1.581 µM) | relative viability (XMD13-2 + OSI-027; first compound 5 µM) |
| --- | --- | --- | --- | --- | --- | --- | --- | --- | --- | --- | --- | --- | --- | --- | --- | --- | --- | --- | --- | --- |
| COR-L23 | 0.232 | 0.18 | 0.197 | 0.18 | 0.185 | 0.199 | 0.159 | 0.173 | 0.119 | 0.109 | 0.591 | 0.5 | 0.523 | 0.347 | 0.216 | 0.915 | 0.78 | 0.838 | 0.711 | 0.864 |
| RERF-LC-KJ | 0.613 | 0.515 | 0.59 | 0.466 | 0.523 | 0.52 | 0.511 | 0.44 | 0.487 | 0.406 | 0.823 | 0.496 | 0.665 | 0.614 | 0.432 | 0.655 | 0.662 | 0.624 | 0.564 | 0.452 |
| NCI-H1755 | 0.664 | 0.575 | 0.498 | 0.543 | 0.494 | 0.584 | 0.532 | 0.516 | 0.312 | 0.21 | 0.775 | 0.602 | 0.437 | 0.275 | 0.137 | 0.798 | 0.699 | 0.797 | 0.576 | 0.775 |
| PC-14 | 0.605 | 0.657 | 0.632 | 0.608 | 0.562 | 0.54 | 0.583 | 0.514 | 0.667 | 0.227 | 0.916 | 0.85 | 0.734 | 0.546 | 0.185 | 1.04 | 0.832 | 0.98 | 0.842 | 0.971 |
| NCI-H322M | 0.563 | 0.52 | 0.456 | 0.456 | 0.517 | 0.465 | 0.356 | 0.289 | 0.232 | 0.176 | 0.855 | 0.773 | 0.696 | 0.459 | 0.203 | 0.576 | 0.507 | 0.519 | 0.588 | 0.593 |
| NCI-H1666 | 0.662 | 0.602 | 0.595 | 0.623 | 0.518 | 0.632 | 0.616 | 0.67 | 0.565 | 0.309 | 0.964 | 0.855 | 0.844 | 0.563 | 0.31 | 0.869 | 0.839 | 0.862 | 0.814 | 0.817 |
| A-427 | 0.213 | 0.199 | 0.2 | 0.159 | 0.195 | 0.223 | 0.214 | 0.176 | 0.142 | 0.156 | 0.961 | 1.06 | 1 | 0.573 | 0.533 | 0.462 | 0.354 | 0.489 | 0.444 | 0.355 |
| NCI-H1651 | 0.721 | 0.807 | 0.64 | 0.759 | 0.672 | 0.679 | 0.611 | 0.724 | 0.522 | 0.656 | 0.899 | 0.853 | 0.66 | 0.544 | 0.619 | 0.813 | 0.716 | 0.768 | 0.747 | 0.778 |
| NCI-H1793 | 0.432 |  | 0.334 | 0.379 | 0.322 | 0.231 | 0.19 | 0.181 | 0.146 | 0.147 | 0.554 | 0.45 | 0.545 | 0.512 | 0.443 | 0.404 |  | 0.255 | 0.277 | 0.271 |
| NCI-H520 | 0.495 | 0.491 | 0.515 | 0.395 | 0.462 | 0.356 | 0.284 | 0.294 | 0.239 | 0.179 | 0.539 | 0.456 | 0.457 | 0.145 | 0.142 | 0.306 | 0.278 | 0.232 | 0.294 | 0.225 |
| 201T | 1.02 | 0.921 | 0.867 | 0.872 | 0.828 | 0.877 | 0.746 | 0.751 | 0.606 | 0.425 | 0.95 | 0.922 | 0.845 | 0.654 | 0.338 | 0.95 | 0.731 | 0.854 | 0.701 | 0.723 |
| NCI-H460 | 0.529 | 0.407 | 0.472 | 0.474 | 0.415 | 0.299 | 0.425 | 0.302 | 0.338 | 0.177 | 0.286 | 0.179 | 0.159 | 0.122 | 0.0551 | 0.939 | 0.837 | 0.713 | 0.723 | 0.645 |
| NCI-H596 | 0.901 | 0.942 | 0.816 | 0.89 | 1.03 | 0.766 | 0.671 | 0.87 | 0.507 | 0.393 | 0.387 | 0.436 | 0.378 | 0.326 | 0.221 | 0.776 | 0.673 | 0.715 | 0.79 | 0.985 |
| HARA | 0.0933 | 0.117 | 0.106 | 0.0964 | 0.105 | 0.119 | 0.133 | 0.0917 | 0.0528 | 0.0523 | 0.778 | 0.723 | 0.57 | 0.27 | 0.193 | 0.661 | 0.438 | 0.43 | 0.446 | 0.636 |
